The assay deals with gamma secretase cleavage of NotchΔE (constitutively active rat Notch1 construct ZEDN1). The assay is described as follows: Notch signaling assay for selective inhibitors of gamma secretase (4xwtCBF1 Luciferase reporter gene co-transfected with NotchΔE ZEDN1). Type of assay: cell-based. To be noted: 'the above assay' (reporter gene based Notch signaling assay), ranges stated as 'from about'. The source says: “A presenilin-1-dependent gamma-secretase-like protease mediates release of Notch intracellular domain.” Nature 398(6727): 518-22; Mumm, J. S., E. H. Schroeter, M. T. Saxena, A. Griesemer, X. Tian, D. J. Pan, W. J. Ray and R. Kopan (2000). “A ligand-induced extracellular cleavage regulates gamma-secretase-like proteolytic activation of Notch1.” Mol Cell 5(2): 197-206; Zhang, Z., P. Nadeau, W. Song, D. Donoviel, M. Yuan, A. Bernstein and B. A. Yankner (2000). “Presenilins are required for gamma-secretase cleavage of beta-APP and transmembrane cleavage of Notch-1.” Nat Cell Biol 2(7): 463-5). Cleavage of APP by gamma secretase leads to β-amyloid synthesis. Cleavage of Notch1 by gamma secretase results in release of the Notch intracellular domain (NICD), which translocates to the nucleus and activates gene expression (Jarriault, S., C. Brou, F. Logeat, E. H. Schroeter, R. Kopan and A. Israel (1995). “Signalling downstream of activated mammalian Notch.” Nature 377(6547): 355-8; Kopan, R., E. H. Schroeter, H. Weintraub and J. S. Nye (1996). “Signal transduction by activated Notch: importance of proteolytic processing and its regulation by the extracellular domain.” Proc Natl Acad Sci USA 93(4): 1683-8; Schroeter, E. H., J. A. Kisslinger and R. Kopan (1998). “Notch-1 signalling requires ligand-induced proteolytic release of intracellular domain.” Nature 393(6683): 382-6). In particular, Notch signaling activates transcription of the mammalian homolog of the Drosophila transcription factor hairy-enhancer of split (Hes). Transcriptional activation of Hes1 is mediated by de-repression of CBF1/RBPJk upon binding by NICD in the nucleus. These facts have been exploited to develop a reporter gene assay for Notch Signaling Hsieh, J. J., T. Henkel, P. Salmon, E. Robey, M. G. Peterson and S. D. Hayward (1996). “Truncated mammalian Notch1 activates CBF1/RBPJk-repressed genes by a mechanism resembling that of Epstein-Barr virus EBNA2.” Mol Cell Biol 16(3): 952-9; Lu, F. M. and S. E. Lux (1996). “Constitutively active human Notch1 binds to the transcription factor CBF1 and stimulates transcription through a promoter containing a CBF1-responsive element.” Proc Natl Acad Sci USA 93(11): 5663-7).
Due to the importance of Notch signaling in cell fate determination, and tissue differentiation during both development and in the adult, inhibition of Notch signaling by gamma secretase inhibitors is postulated to be a limiting factor in their therapeutic utility. […] “Notch signaling inhibits muscle cell differentiation through a CBF1-independent pathway.” Development 122(12): 3765-73 in combination with the CBF1 repressible Luciferase reporter gene 4xwtCBF1Luc (Hsieh, J. J., et al., (1996). Mol Cell Biol 16(3): 952-9).
When 4xwtCBF1 Luciferase is co-transfected with NotchΔE (ZEDN1), γ-secretase cleavage of NotchΔE releases the Notch intracellular domain (NICD), which translocates to the nucleus and de-represses CBF1mediated transcriptional repression, leading to transcription of the Luciferase reporter gene. Luciferase activity is easily assayed in cell extracts using commercially available kits. The activity of the reporter gene is directly correlated with gamma secretase cleavage of NotchΔE, and as such, a reduction in Luciferase activity provides a convenient measure of inhibition of gamma secretase cleavage of NotchΔE.
In the case of `CCN(C(=O)c1ccc(CN([C@@H]2CCCCNC2=O)S(=O)(=O)c2ccc(Cl)cc2)cc1)C1CCCCC1` [Compound 609, 4-({[(4-chlorophenyl)sulfonyl][(3R)-2-oxoazepan-3-yl]amino}methyl)-N-cyclohexyl-N-ethylbenzamide], the IC50 is 100 to 1000 nM.
Under `O=C1NCCCC[C@H]1N(Cc1ccc(-c2nnn[nH]2)cc1)S(=O)(=O)c1ccc(Cl)cc1` [Compound 663] stands 25 to 100 nM; under `O=C1NCCCC[C@H]1N(Cc1ccc(-c2nnc(-c3ccccc3)o2)cc1)S(=O)(=O)c1ccc(Cl)cc1` [Compound 672], > 1000 nM.
With `C[C@@H](NC(=O)c1ccc(CN([C@@H]2CCCCNC2=O)S(=O)(=O)c2ccc(Cl)cc2)cc1)c1ccccc1` [Compound 537, 4-({[(4-chlorophenyl)sulfonyl][(3R)-2-oxoazepan-3-yl]amino}methyl)-N-[(1R)-1-phenylethyl]benzamide], the IC50 lay within 0.1 to 25 nM.
`CSc1ccc(CN(C2CCCCNC2=O)S(=O)(=O)c2ccc(Cl)cc2)cc1` (stereo not drawn) [Compound 269, 4-Chloro-N-(4-methylsulfanyl-benzyl)-N-(2-oxo-azepan-3-yl)-benzenesulfonamide]: the IC50 was in the range of 0.1 to 25 nM.
Under `O=C1NCCCCC1N(Cc1cccn1S(=O)(=O)c1ccccc1)S(=O)(=O)c1ccc(Cl)cc1` (stereo not drawn) [Compound 206, N-(1-Benzenesulfonyl-1H-pyrrol-2-ylmethyl)-4-chloro-N-(2-oxo-azepan-3-yl)-benzenesulfonamide] stands > 1000 nM; under `O=C1c2ccccc2C(=O)C1CCCCN([C@@H]1CCCCNC1=O)S(=O)(=O)c1ccc(Cl)cc1` [Compound 108, 4-chloro-N-[4-(1,3-dioxo-2,3-dihydro-1H-inden-2-yl)butyl]-N-[(3R)-2-oxoazepan-3-yl]benzenesulfonamide], 100 to 1000 nM; under `CC(NC(=O)c1ccc(CN([C@@H]2CCCCNC2=O)S(=O)(=O)c2ccc(Cl)cc2)cc1)c1cccnc1` (stereo partly drawn) [Compound 636, 4-({[(4-chlorophenyl)sulfonyl][(3R)-2-oxoazepan-3-yl]amino}methyl)-N-(1-pyridin-3-ylethyl)benzamide], 25 to 100 nM.
As for `CC(C)CNC(=O)c1ccc(CN([C@@H]2CCCCNC2=O)S(=O)(=O)c2ccc(Cl)cc2)cc1` [Compound 486, 4-({[(4-chlorophenyl)sulfonyl][(3R)-2-oxoazepan-3-yl]amino}methyl)-N-isobutylbenzamide], the IC50 was in the range of 25 to 100 nM.
Take `O=C1NCC[C@H]1N(Cc1ccc(F)cc1F)S(=O)(=O)c1ccc(Cl)cc1` [Compound 148, 4-chloro-N-(2,4-difluorobenzyl)-N-[(3R)-2-oxopyrrolidin-3-yl]benzenesulfonamide]: the IC50 was > 1000 nM.
With `O=C(NCc1cccnc1)c1ccc(CN([C@@H]2CCCCNC2=O)S(=O)(=O)c2ccc(Cl)cc2)cc1` [Compound 593, 4-({[(4-chlorophenyl)sulfonyl][(3R)-2-oxoazepan-3-yl]amino}methyl)-N-(pyridin-3-ylmethyl)benzamide], the IC50 lay within 0.1 to 25 nM.
With `COC(=O)c1ccc(CN([C@@H]2CCCCNC2=O)S(=O)(=O)c2ccc(Cl)cc2)cc1` [Compound 275, methyl 4-({[(4-chlorophenyl)sulfonyl][(3R)-2-oxoazepan-3-yl]amino}methyl)benzoate], the IC50 was 0.1 to 25 nM.
Under `O=C(CCCc1ccccc1)Nc1ccc(CN([C@@H]2CCCCNC2=O)S(=O)(=O)c2ccc(Cl)cc2)cc1F` [Compound 505, N-[4-({[(4-chlorophenyl)sulfonyl][(3R)-2-oxoazepan-3-yl]amino}methyl)-2-fluorophenyl]-4-phenylbutanamide] stands 100 to 1000 nM; under `O=C1NCCCC[C@H]1N(Cc1ccc2c(c1)OCCO2)S(=O)(=O)c1ccc(Cl)cc1` [Compound 77, 4-chloro-N-(2,3-dihydro-1,4-benzodioxin-6-ylmethyl)-N-[(3R)-2-oxoazepan-3-yl]benzenesulfonamide], 0.1 to 25 nM.
For the compound `O=C1NCCCC[C@H]1N(Cc1ccc2ccccc2c1)S(=O)(=O)c1ccc(Cl)cc1` [Compound 227, 4-chloro-N-(2-naphthylmethyl)-N-[(3R)-2-oxoazepan-3-yl]benzenesulfonamide], the IC50 lay within 25 to 100 nM.
Turning to `O=C1NCCCC[C@H]1N(Cc1ccc(C(=O)N(Cc2cccnc2)Cc2cccnc2)cc1)S(=O)(=O)c1ccc(Cl)cc1` [Compound 613, 4-({[(4-chlorophenyl)sulfonyl][(3R)-2-oxoazepan-3-yl]amino}methyl)-N,N-bis(pyridin-3-ylmethyl)benzamide], the IC50 is > 1000 nM.
Turning to `O=C1NCCCC[C@H]1N(CCCOCc1ccccc1)S(=O)(=O)c1ccc(Cl)cc1` [Compound 89, N-[3-(benzyloxy)propyl]-4-chloro-N-[(3R)-2-oxoazepan-3-yl]benzenesulfonamide], the IC50 was > 1000 nM.
Then `C=C(CC)CN(C1CCCCNC1=O)S(=O)(=O)c1ccc(Cl)cc1` (stereo not drawn) [Compound 66, 4-Chloro-N-(2-ethyl-allyl)-N-(2-oxo-azepan-3-yl)-benzenesulfonamide], with 100 to 1000 nM.
Under `COc1ccc(CN(C2CCCCNC2=O)S(=O)(=O)c2ccc(C(C)(C)C)cc2)cc1OC` (stereo not drawn) [Compound 14, 4-tert-Butyl-N-(3,4-dimethoxy-benzyl)-N-(2-oxo-azepan-3-yl)-benzenesulfonamide] stands > 1000 nM.
Then `NC(=O)CN(C1CCCCNC1=O)S(=O)(=O)c1ccc(Cl)cc1` (stereo not drawn) [Compound 338, 2-[(4-Chloro-benzenesulfonyl)-(2-oxo-azepan-3-yl)-amino]-acetamide], with > 1000 nM; and `CC[C@@H](NC(=O)c1ccc(CN([C@@H]2CCCCNC2=O)S(=O)(=O)c2ccc(Cl)cc2)cc1)c1ccccc1` [Compound 553, 4-({[(4-chlorophenyl)sulfonyl][(3R)-2-oxoazepan-3-yl]amino}methyl)-N-[(1R)-1-phenylpropyl]benzamide], with 25 to 100 nM; and `O=C1NCCCCC1N(Cc1ccc(Br)s1)S(=O)(=O)c1ccc(Cl)cc1` (stereo not drawn) [Compound 160, N-(5-Bromo-thiophen-2-ylmethyl)-4-chloro-N-(2-oxo-azepan-3-yl)-benzenesulfonamide], with 100 to 1000 nM.
`O=C1NCCCCC1N(Cc1ccc2c(c1)OCO2)S(=O)(=O)c1ccc(Cl)cc1` (stereo not drawn) [Compound 249, N-Benzo[1,3]dioxol-5-ylmethyl-4-chloro-N-(2-oxo-azepan-3-yl)-benzenesulfonamide]: the IC50 was in the range of 0.1 to 25 nM.
Under `O=C(NCc1ccccc1OC(F)(F)F)c1ccc(CN([C@@H]2CCCCNC2=O)S(=O)(=O)c2ccc(Cl)cc2)cc1` [Compound 579, 4-({[(4-chlorophenyl)sulfonyl][(3R)-2-oxoazepan-3-yl]amino}methyl)-N-[2-(trifluoromethoxy)benzyl]benzamide] stands 100 to 1000 nM.
